The values that follow come from US11873303B2, “Substituted pyrazoles as type II IRAK inhibitors” (Merck Patent GmbH, priority 2018, dated 2024).

Test [1] deals with T1, IRAK4 (human purified recombinant enzyme His-TEV-IRAK4 (1-460)) (Homo sapiens, UniProt Q9NWZ3).
T1 construct: His-TEV-IRAK4 (1-460); His (N); TEV cleavage site (N)
T1 sequence (Q9NWZ3 1-460): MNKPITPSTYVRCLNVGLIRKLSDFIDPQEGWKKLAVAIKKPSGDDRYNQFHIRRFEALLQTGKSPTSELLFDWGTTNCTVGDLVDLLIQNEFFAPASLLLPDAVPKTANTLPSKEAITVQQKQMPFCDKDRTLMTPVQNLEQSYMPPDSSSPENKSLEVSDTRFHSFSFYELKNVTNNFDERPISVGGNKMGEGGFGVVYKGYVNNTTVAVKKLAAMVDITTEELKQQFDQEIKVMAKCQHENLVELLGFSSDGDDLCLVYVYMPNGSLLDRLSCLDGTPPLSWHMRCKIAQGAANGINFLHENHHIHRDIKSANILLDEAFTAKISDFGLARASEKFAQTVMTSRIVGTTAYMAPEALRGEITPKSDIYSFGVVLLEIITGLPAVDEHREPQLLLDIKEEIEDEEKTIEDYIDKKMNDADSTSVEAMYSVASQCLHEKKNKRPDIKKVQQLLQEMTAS
The experiment in a line: IRAK4 enzymatic assay (ADP-Glo luminescence). It counts as biochemical. To be noted: human recombinant IRAK4, ATP 2 μM, STK1-biotin peptide. The protocol: IRAK4 is a human purified recombinant enzyme (His-TEV-IRAK4 (1-460)). In this assay, IRAK4 hydrolysed ATP, autophosphorylated and phosphorylated a Serine/Threonine generic peptidic substrate (STK: 61ST1BLC from CisBio International). Measurement of IRAK-4 inhibition was performed in 384-well format based on a luminescence assay (ADP-Glo™ Kinase Assay from Promega). Purified human recombinant IRAK4 (0.3 μg/ml) and serial diluted compounds in DMSO (range of concentration from 10 μM to 0.5 nM) or controls (1% DMSO) were incubated for 15 minutes at RT in assay buffer containing 50 mM Hepes pH 7.0, Fatty acid-free BSA 0.1%, Dithiothreitol (DTT) 2 mM, MgCl2 10 mM, EGTA 0.5 mM, Triton X-100 0.01%, MnCl2 5 mM. The kinase reaction was then initiated by the addition of ATP (2 μM) and the peptidic substrate STK1-biotin peptide (300 nM). After 2 hours of incubation at RT, the reaction was stopped and the unconsumed ATP depleted by the addition of ADP-Glo™ Reagent according to supplier instructions. After 40 minutes of incubation at RT, the Kinase Detection Reagent was then added to the assay plate according to supplier instructions. After 20 minutes of incubation at RT, the luminescence signal was measured with a plate-reading luminometer (PerkinElmer Envision or equivalent reader).

Test [2] deals with TLR7 induced IL-6 secretion in human mononuclear cells (PBMC's). The experiment in a line: TLR7 induced IL-6 in human PBMC's. Type of test: cell-based. Particulars: TLR7 ligand 2 uM overnight, IL-6 AlphaLISA. On the procedure: TLR7 Induced IL-6 in Human PBMC's
Human PBMC assay was used as one of the functional assays to monitor the activity of IRAK1 and IRAK4 small molecule inhibitors on TLR7 induced IL-6 secretion in human mononuclear cells (PBMC's). Human PBMCs were prepared from buffy coats (whole blood enriched with leukocytes and platelets) obtained from healthy volunteers used either fresh or frozen were plated in assay media (RPMI+2% P/S/L-glu+10% HI-FBS) and pre-treated with compounds in DMSO/media (range of concentrations from 25 uM to 0.4 nM) or controls (0.25% DMSO) for 30 minutes at 37° C. in assay media. Following pre-treatment with IRAK1 and IRAK4 inhibitors, PBMC's were stimulated with TLR7 specific ligand (2 uM) overnight (16-18 hrs) at 37° C. After incubation supernatant was transferred to 384 well PE AlphaPlate-384 and IL-6 was quantified using Perkin Elmer IL-6 Alpha LISA kit (AL223C). Plates were read on an Envision® plate reader with Alpha Technology®.

In test [3] the target is T2, IRAK1 (human purified recombinant enzyme His-TEV-IRAK1 (194-712)) (Homo sapiens, UniProt P51617).
T2 construct: His-TEV-IRAK1 (194-712); His (N); TEV cleavage site (N)
Briefly: IRAK1 enzymatic assay (ADP-Glo luminescence). Type of test: biochemical. Particulars: human recombinant IRAK1, ATP 1 μM. On the procedure: IRAK1 is a human purified recombinant enzyme (His-TEV-IRAK1 (194-712)). In this assay, IRAK1 hydrolysed ATP and autophosphorylated. Measurement of IRAK-1 inhibition was performed in 384-well format based on luminescence assay (ADP-Glo™ Kinase Assay from Promega). Purified human recombinant IRAK1 (0.3 μg/ml) and serial diluted compounds in DMSO (range of concentration from 10 μM to 0.5 nM) or controls (1% DMSO) were incubated for 15 minutes at RT in assay buffer containing 50 mM Hepes pH 7.0, Fatty acid-free BSA 0.1%, Dithiothreitol (DTT) 2 mM, MgCl2 10 mM, EGTA 0.5 mM, Triton X-100 0.01%. The kinase reaction was then initiated by the addition of ATP at a concentration of 1 μM. After 2 hours of incubation at RT, the reaction was stopped and the unconsumed ATP depleted by the addition of ADP-Glo™ Reagent according to supplier instructions. After 40 minutes of incubation at RT, the Kinase Detection Reagent was then added to the assay plate according to supplier instructions. After 20 minutes of incubation at RT, the luminescence signal was measured with a luminometer (PerkinElmer Envision or equivalent reader).

T2 sequence (P51617 194-712): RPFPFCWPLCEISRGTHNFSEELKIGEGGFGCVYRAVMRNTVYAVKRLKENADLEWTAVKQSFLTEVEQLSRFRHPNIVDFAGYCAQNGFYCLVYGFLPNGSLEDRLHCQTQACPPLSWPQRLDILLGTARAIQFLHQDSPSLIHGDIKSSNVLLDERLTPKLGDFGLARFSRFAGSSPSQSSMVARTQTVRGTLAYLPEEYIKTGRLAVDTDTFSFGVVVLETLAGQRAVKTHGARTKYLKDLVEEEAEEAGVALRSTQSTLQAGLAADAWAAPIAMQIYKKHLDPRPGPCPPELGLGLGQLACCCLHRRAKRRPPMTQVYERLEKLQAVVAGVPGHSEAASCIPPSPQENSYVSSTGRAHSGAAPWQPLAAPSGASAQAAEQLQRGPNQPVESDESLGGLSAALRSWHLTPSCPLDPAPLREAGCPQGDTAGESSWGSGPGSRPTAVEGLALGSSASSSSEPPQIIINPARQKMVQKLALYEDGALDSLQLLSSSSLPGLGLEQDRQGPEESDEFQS

Turning to `Cc1ccc(-n2nc(C(C)(C)C)cc2NC(=O)C(O)c2ccc(-c3nn(C)c4ncnc(N)c34)cc2)cc1` (stereo not drawn) [Example 19, 2-[4-(4-Amino-1-methyl-1H-pyrazolo[3,4-d]pyrimidin-3-yl)-phenyl]-N-(5-tert-butyl-2-p-tolyl-2H-pyrazol-3-yl)-2-hydroxy-acetamide], the values for the IC50 in test [1], in test [2] and in test [3] were 100 to 1000 nM, 100 to 1000 nM and less than 100 nM, respectively.

Consider `Cn1nc(-c2ccc(NC(=O)Nc3cc(C(C)(C)C)nn3-c3ccc(C#N)cc3)c(Cl)c2)c2c(N)ncnc21` [Example 28, 1-(4-{4-amino-1-methyl-1H-pyrazolo[3,4-d]pyrimidin-3-yl}-2-chlorophenyl)-3-[3-tert-butyl-1-(4-cyanophenyl)-1H-pyrazol-5-yl]urea], for which the IC50 in test [1] is 100 to 1000 nM; in test [3] it was less than 100 nM.

Turning to `Cc1ccc(-n2nc(C(C)(C)C)cc2NC(=O)Nc2ccc(-c3csc4ncnc(N)c34)c(F)c2Cl)cc1` [Example 23, 1-[4-(4-Amino-thieno[2,3-d]pyrimidin-5-yl)-2-chloro-3-fluoro-phenyl]-3-(5-tert-butyl-2-p-tolyl-2H-pyrazol-3-yl)-urea], the IC50 in test [1] is 1000 to 5000 nM; in test [2], less than 100 nM; in test [3], less than 100 nM.

For the molecule `CC(C)c1ccc(-n2nc(C(C)(C)C)cc2NC(=O)Cc2ccc(-c3nn(C)c4ncnc(N)c34)cc2F)cc1` [Example 16, 2-[4-(4-Amino-1-methyl-1H-pyrazolo[3,4-d]pyrimidin-3-yl)-2-fluoro-phenyl]-N-[5-tert-butyl-2-(4-isopropyl-phenyl)-2H-pyrazol-3-yl]-acetamide], the IC50 was 100 to 1000 nM in test [1], 1000 to 5000 nM in test [2] and less than 100 nM in test [3].

On to `Cc1ccc(-n2nc(C(F)(F)F)cc2NC(=O)Nc2ccc(-c3nn(C)c4ncnc(N)c34)c(F)c2)cc1` [Example 13, 1-[4-(4-Amino-1-methyl-1H-pyrazolo[3,4-d]pyrimidin-3-yl)-3-fluoro-phenyl]-3-(2-p-tolyl-5-trifluoromethyl-2H-pyrazol-3-yl)-urea], for which the IC50 in test [1] is more than 5000 nM; in test [2], 100 to 1000 nM; in test [3] it was 100 to 1000 nM.

Turning to `Cc1ccc(-n2nc(C(C)(C)C)cc2NC(=O)C(=O)c2ccc(-c3nn(C)c4ncnc(N)c34)cc2)cc1` [Example 20, 2-[4-(4-Amino-1-methyl-1H-pyrazolo[3,4-d]pyrimidin-3-yl)-phenyl]-N-(5-tert-butyl-2-p-tolyl-2H-pyrazol-3-yl)-2-oxo-acetamide], the values for the IC50 in test [1], in test [2] and in test [3] were less than 100 nM, 1000 to 5000 nM and less than 100 nM, respectively.

On to `Cc1ccc(-n2nc(C(C)(C)C)cc2NC(=O)Nc2ccc(-c3nn(C)c4ncnc(N)c34)c(Cl)c2)cc1` [Example 8, 1-[4-(4-Amino-1-methyl-1H-pyrazolo[3,4-d]pyrimidin-3-yl)-3-chloro-phenyl]-3-(5-tert-butyl-2-p-tolyl-2H-pyrazol-3-yl)-urea], for which the 50% inhibitory concentration (IC50) in test [1], in test [2] and in test [3] was less than 100 nM throughout.

As to `Cc1ccc(-n2nc(C(C)(C)C)cc2NC(=O)Nc2ccc(-c3nn(C)c4ncnc(N)c34)cc2Cl)cc1` [Example 5, 1-[4-(4-Amino-1-methyl-1H-pyrazolo[3,4-d]pyrimidin-3-yl)-2-chloro-phenyl]-3-(5-tert-butyl-2-p-tolyl-2H-pyrazol-3-yl)-urea], the IC50 in test [1], in test [2] and in test [3] was less than 100 nM throughout.

For the molecule `Cc1ccc(-n2nc(C(C)(C)C)cc2NC(=O)Nc2ccc(-c3nn(C)c4ccnc(N)c34)cc2F)cc1` [Example 26, 1-[4-(4-Amino-1-methyl-1H-pyrazolo[4,3-c]pyridin-3-yl)-2-fluoro-phenyl]-3-(5-tert-butyl-2-p-tolyl-2H-pyrazol-3-yl)-urea], the IC50 in test [1] is 100 to 1000 nM; in test [2], less than 100 nM; in test [3], less than 100 nM.

For the molecule `Cc1ccc(-n2nc(C(C)(C)C)cc2NC(=O)Nc2ccc(-c3csc4ncnc(N)c34)c(Cl)c2)cc1` [Example 10, 1-[4-(4-Amino-thieno[2,3-d]pyrimidin-5-yl)-3-chloro-phenyl]-3-(5-tert-butyl-2-p-tolyl-2H-pyrazol-3-yl)-urea], the half-maximal inhibitory concentration (IC50) is 100 to 1000 nM in test [1], less than 100 nM in test [2] and less than 100 nM in test [3].

On to `Cc1ccc(-n2nc(C(C)(C)C)cc2NC(=O)Nc2ccc(-c3csc4ncnc(N)c34)cc2)cc1` [Example 12, 1-[4-(4-Amino-thieno[2,3-d]pyrimidin-5-yl)-phenyl]-3-(5-tert-butyl-2-p-tolyl-2H-pyrazol-3-yl)-urea], for which the figures for the IC50 in test [1], in test [2] and in test [3] were 100 to 1000 nM, less than 100 nM and less than 100 nM, respectively.

For the molecule `Cc1ccc(-n2nc(C(C)(C)C)cc2NC(=O)NC2CC=C(c3cn(C)c4ncnc(N)c34)CC2)cc1` (stereo not drawn) [Example 25, 1-[4-(4-Amino-7-methyl-7H-pyrrolo[2,3-d]pyrimidin-5-yl)-cyclohex-3-enyl]-3-(5-tert-butyl-2-p-tolyl-2H-pyrazol-3-yl)-urea], the IC50 in test [1] and in test [3] was less than 100 nM in each case.

Take `CC(C)c1ccc(-n2nc(C(C)(C)C)cc2NC(=O)Cc2ccc(-c3nn(C)c4ncnc(N)c34)cc2)cc1` [Example 15, 2-[4-(4-Amino-1-methyl-1H-pyrazolo[3,4-d]pyrimidin-3-yl)-phenyl]-N-[5-tert-butyl-2-(4-isopropyl-phenyl)-2H-pyrazol-3-yl]-acetamide]: the figures for the IC50 in test [1], in test [2] and in test [3] were 1000 to 5000 nM, 1000 to 5000 nM and less than 100 nM, respectively.

For the molecule `Cc1ccc(-n2nc(C(C)(C)C)cc2NC(=O)Nc2ccc(-c3nn(C)c4ncnc(N)c34)cc2F)cc1` [Example 4, 1-[4-(4-Amino-1-methyl-1H-pyrazolo[3,4-d]pyrimidin-3-yl)-2-fluoro-phenyl]-3-(5-tert-butyl-2-p-tolyl-2H-pyrazol-3-yl)-urea], the IC50 in test [1], in test [2] and in test [3] was less than 100 nM in each case.

Consider `Cc1ccc(-n2nc(C(C)(C)C)cc2NC(=O)Nc2ccc(-c3nn(C)c4ncnc(N)c34)cc2Cl)cc1F` [Example 29, 1-[4-(4-Amino-1-methyl-1H-pyrazolo[3,4-d]pyrimidin-3-yl)-2-chloro-phenyl]-3-[5-tert-butyl-2-(3-fluoro-4-methyl-phenyl)-2H-pyrazol-3-yl]-urea], for which the IC50 was 100 to 1000 nM in test [1] and less than 100 nM in test [3].

Take `Cc1ccc(-n2nc(C(C)(C)C)cc2NC(=O)Nc2ccc(-c3csc4ncnc(N)c34)cc2Cl)cc1` [Example 11, 1-[4-(4-Amino-thieno[2,3-d]pyrimidin-5-yl)-2-chloro-phenyl]-3-(5-tert-butyl-2-p-tolyl-2H-pyrazol-3-yl)-urea]: the concentration for half-maximal inhibition (IC50) in test [1] is 1000 to 5000 nM; in test [2] it was less than 100 nM; in test [3], less than 100 nM.
